Broadly, the Kd is a measure of binding affinity in units of concentration.

We go through five compounds from paper PMC10056567, “Structural Insights into the Ligand–LsrK Kinase Binding Mode: A Step Forward in the Discovery of Novel Antimicrobial Agents” (Molecules, 2023).

Experiment [1] has as its target T1, LsrK (ecLsrK) (Escherichia coli, UniProt P77432). Description: tryptophan fluorescence quenching, modified Stern-Volmer. Also noted: 530 residues. It is filed as binding. The conditions noted are these: 0.1 uM LsrK, PBS pH 7.4, 25 °C.
For experiment [2], the target named is T1, LsrK (ecLsrK). Description: biochemical.

T1 sequence (P77432 whole entry): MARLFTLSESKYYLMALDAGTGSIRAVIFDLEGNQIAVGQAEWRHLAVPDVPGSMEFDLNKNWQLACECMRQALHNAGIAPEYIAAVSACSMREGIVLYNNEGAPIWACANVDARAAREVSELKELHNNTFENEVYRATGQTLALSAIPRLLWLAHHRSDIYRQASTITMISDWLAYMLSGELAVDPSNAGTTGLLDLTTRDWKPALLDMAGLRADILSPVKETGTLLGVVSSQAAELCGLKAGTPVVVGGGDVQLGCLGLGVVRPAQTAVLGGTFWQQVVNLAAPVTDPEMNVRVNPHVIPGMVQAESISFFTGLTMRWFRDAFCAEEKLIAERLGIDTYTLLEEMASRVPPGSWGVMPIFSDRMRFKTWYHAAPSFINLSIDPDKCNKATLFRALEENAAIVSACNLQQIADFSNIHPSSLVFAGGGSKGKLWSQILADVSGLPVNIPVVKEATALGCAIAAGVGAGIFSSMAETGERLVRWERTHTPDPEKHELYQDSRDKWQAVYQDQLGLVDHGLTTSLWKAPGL

As to `COc1cc(C)cc2cc3c(c(O)c12)C(=O)CC[C@H]3O` [(R)-ASME], the Kd in experiment [1] turned out to be 0.19 µM. This counts as sub-micromolar. As to `Nc1ncnc2c1ncn2[C@@H]1O[C@H](COP(=O)(O)OP(=O)(O)OP(=O)(O)O)[C@@H](O)[C@H]1O` [ATP], in experiment [2], the Kd worked out at 5.07 ± 0.23 µM. `Cc1cc(O)c(C=O)c2c1C(=O)Oc1c(COC(=O)/C=C/C(=O)O)c(O)c(C(=O)O)c(C)c1O2` [FP, fumarprotocetraric acid] showed a Kd in experiment [1] of 0.217 ± 0.008 µM.

The compound `O=CC1=C(O)C=CCO1` [Hib-carbaldehyde, 5-hydroxy-2H-pyran-6-carbaldehyde] gave a Kd in experiment [1] of 0.14 µM. `COC(=O)[C@@H]1OC(=O)C[C@@]1(O)C(=O)OC` [Hib-ester, dimethyl (2R,3S)-3-hydroxy-5-oxotetrahydrofuran-2,3-dicarboxylate] showed a Kd in experiment [1] of 0.078 µM.
